Test results from patent US11058758B2, “TH1-inducing adjuvant comprising combination of different nucleic acid adjuvants, and use of same” (National Institutes of Biomedical Innovation, Health and …, priority 2014, dated 2021).

What was measured:
C57BL/6J mice = test: Intramuscular OVA immunization of mice: serum antibodies and splenocyte cytokines; format: in vivo, mouse; details: for serum anti-OVA IgG1 titer / OVA-specific IL-13 production by splenocytes: i.m. day 0 and day 10 with OVA; for serum anti-OVA IgG1 titer: serum day 17; for OVA-specific IL-13 production by splenocytes: splenocytes day 17, OVA 48 hours
Procedure: Mice were immunized intramuscularly on day 0 and day 10 with K3 CpG (10 μg), 3′3′/2′3′-cGAMP (1 μg), c-di-GMP (1 μg), DMXAA (50 μg), or OVA (10 μg) comprising or not comprising K3+3′3′/2′3′-cGAMP/c-di-GMP/DMXAA. On day 17, OVA specific sera IgG1 and IgG2c were measured by ELISA.
(B—C) mice were immunized intramuscularly on day 0 and day 10 with K3 CpG (10 μg), 3′3′/2′3′-cGAMP (1 μg), c-di-GMP (1 μg), DMXAA (50 μg), or OVA (10 μg) comprising or not comprising K3+3′3′/2′3′-cGAMP/c-di-GMP/DMXAA. Splenocytes were stimulated for 48 hours with OVA (10 μg/ml) protein. Production of IFNγ and IL-13 was measured by ELISA.
On day 17, the splenocytes were isolated and stimulated for 48 hours with a MHC class I (OVA257) or a MHC class II (OVA323) specific OVA or an OVA peptide.
On day 17, OVA specific sera IgG1 and IgG2c were measured by ELISA as previously described [Kuroda et al., Immunity. (2011) 34; 514-526]. The secondary antibodies used in ELISA of IgG2c and IgG1 were horseradish peroxidase conjugate goat anti-mouse IgG2c and IgG1 (Bethyl Laboratories, Montgomery, Tex.). On day 17, splenocytes were collected to prepare a single cell suspension using gentle MACS dissociator (miltenyi Biotech, Gladbach, Germany). […] IFNγ and IL-13 production was measured by ELISA.

mice = test: OVA specific serum IgE after immunization; details: i.m. day 0 and day 10, serum day 17
[1] = system: IRF3/7, STING, MyD88, IL-12, and type I IFN signaling
Procedure: The vertical axis of the left panel indicates the concentration of IFNγ (ng/ml), and the vertical axis of the right panel indicates the concentration of IL-13 (ng/ml). […] The splenocytes were stimulated for 48 hours with OVA.
On day 17, OVA specific sera IgG2c and IgG1 were measured by ELISA.
The vertical axis of the left panel indicates the concentration of IFNγ (ng/ml), and the vertical axis of the right panel indicates the concentration of IL-13 (ng/ml). […] (D) The splenocytes were stimulated for 48 hours with OVA proteins.
On day 17, OVA specific serum IgG2c and IgG1 were measured by ELISA. Further, splenocytes were stimulated for 48 hours with OVA to measure IFNγ production by ELISA.
On day 17, OVA specific sera IgG2c and IgG1 were measured by ELISA. Further, splenocytes were stimulated for 48 hours with an OVA protein to measure IFNγ production by ELISA.

| SMILES | adjuvant type (C57BL/6J mice; OVA immunization, antibody and T cell responses) | serum anti-OVA IgG1 titer (C57BL/6J mice) | OVA-specific IL-13 production by splenocytes (C57BL/6J mice) | IgE of the serum in mice immunized with OVA (mice) | dependency of Th2 responses on type I IFN signaling ([1]; IFNAR KO mice) | dependency of induced antibody responses on type I IFN signaling ([1]; IFNAR KO mice) | dependency of induced T cell responses on IRF3/7 and MyD88 ([1]; IRF3/7 DKO and MyD88 KO mice) | dependency of induced antibody and T cell responses on STING ([1]; Tmem173gt mice) |
| --- | --- | --- | --- | --- | --- | --- | --- | --- |
| Nc1nc2c(ncn2[C@@H]2O[C@@H]3COP(=O)(O)O[C@H]4[C@@H](O)[C@H](n5cnc6c(N)ncnc65)O[C@@H]4COP(=O)(O)O[C@H]3[C@H]2O)c(=O)[nH]1 [cGAMP, 3′3′-cGAMP] | type 2 adjuvant | high | production of OVA-specific IL-13 | induce IgE | not dependent thereon | dependent on type I IFN signaling | partially dependent on IRF3/7 and surprisingly dependent on MyD88 | completely dependent on STING |
| Nc1nc2c(ncn2[C@@H]2O[C@@H]3COP(=O)(O)O[C@H]4[C@@H](O)[C@H](n5cnc6c(=O)[nH]c(N)nc65)O[C@@H]4COP(=O)(O)O[C@H]3[C@H]2O)c(=O)[nH]1 [c-di-GMP] | – | high | production of OVA-specific IL-13 | – | – | – | – | – |
| Cc1ccc2c(=O)c3cccc(CC(=O)O)c3oc2c1C [DMXAA] | – | high | production of OVA-specific IL-13 | – | – | – | – | – |
